Patent US9670482B2, “Multispecific peptides” (BICYCLE THERAPEUTICS LIMITED, priority 2009, dated 2017)
Residues, ends and D or L forms follow the SMILES beside them.

Columns and labels:
Assay type in all cases: in vitro ADME
Cathepsin G = target: T1, Cathepsin G (Homo sapiens, UniProt P08311); experiment: Peptide conjugate digestion with Cathepsin G; set-up: key to the marks not given beside the values; settings: 37° C. for 1 hr
T1 sequence (P08311 21-244): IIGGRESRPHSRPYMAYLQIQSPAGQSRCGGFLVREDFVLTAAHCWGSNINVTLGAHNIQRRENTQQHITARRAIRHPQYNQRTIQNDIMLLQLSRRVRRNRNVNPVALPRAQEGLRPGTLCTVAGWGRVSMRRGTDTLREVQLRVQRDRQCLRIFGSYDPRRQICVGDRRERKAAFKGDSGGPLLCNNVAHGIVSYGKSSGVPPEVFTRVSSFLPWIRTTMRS
Method: (§1) Linear peptides (PK15 and CG4L1-PK15L1) were first treated with iodoacetamide prior to digestion studies. The peptides (ca 3-4 mg) were purified by HPLC (semi-prep Proteo column as described in general methods), and the HPLC fraction (ca 3 ml) was neutralised with an equal volume of 50 mM ammonium bicarbonate. […] The reaction mixture was concentrated (rotary evaporator) and re-purified by HPLC as above.
(§2) Peptides (linear and conjugates) were dissolved in water at a concentration of 1 mg/ml, giving an effective concentration of −0.5 mM stock solutions. 2 μl of peptide conjugates (˜30 μM in reactions depending on actual molecular weight) where dissolved in reaction buffer (see below) in a total reaction volume of 30 μl, followed by the protease, and samples were incubated at 37° C. for 1 hr. 10 μl aliquots were quenched into 20 μl of 10% dichloroacetic acid in MeCN/H2O (1:1) and stored at −20° C. for 30 minutes, centrifuged at 4° C. (13000 rpm) for 5 minutes and then spotted onto MALDI-TOF mass spectrometer plate for analysis.
(§3) All reactions at 37° C. Cathepsin G and kalikrein reactions were carried out in 10 mM Tris pH 7.4, 150 mM NaCl, 10 mM MgCl2, 1 mM CaCl2, 0.1% BSA, 0.01% Triton X100, 5% DMSO. Chymotrypsin reactions were carried out in 100 mM Tris pH 7.4, 10 mM CaCl2. Pronase and proteinase K reactions were carried out in 100 mM Tris pH 7.4, 0.5% SDS. Subtilisin reactions were carried out in 50 mM KH2PO4 pH 7.5. Trypsin reactions were carried out in 67 mM sodium phosphate pH 7.6. Reaction conditions with serum involve dissolving the peptide in 1×PBS (total volume 24 μl) and 6 μl of human serum added to the reaction.

Chymotrypsin = experiment: Peptide conjugate digestion with Chymotrypsin; settings: 37° C. for 1 hr
Method: as §1, §2, §3

Kalikrein = Kalikrein (Homo sapiens, UniProt P03952); experiment: Peptide conjugate digestion with Kalikrein; set-up: digestion with Kalikrein: key to the marks not given beside the values; settings: for digestion with Kalikrein: 37° C. for 1 hr
Chain of Kalikrein (P03952 20-638): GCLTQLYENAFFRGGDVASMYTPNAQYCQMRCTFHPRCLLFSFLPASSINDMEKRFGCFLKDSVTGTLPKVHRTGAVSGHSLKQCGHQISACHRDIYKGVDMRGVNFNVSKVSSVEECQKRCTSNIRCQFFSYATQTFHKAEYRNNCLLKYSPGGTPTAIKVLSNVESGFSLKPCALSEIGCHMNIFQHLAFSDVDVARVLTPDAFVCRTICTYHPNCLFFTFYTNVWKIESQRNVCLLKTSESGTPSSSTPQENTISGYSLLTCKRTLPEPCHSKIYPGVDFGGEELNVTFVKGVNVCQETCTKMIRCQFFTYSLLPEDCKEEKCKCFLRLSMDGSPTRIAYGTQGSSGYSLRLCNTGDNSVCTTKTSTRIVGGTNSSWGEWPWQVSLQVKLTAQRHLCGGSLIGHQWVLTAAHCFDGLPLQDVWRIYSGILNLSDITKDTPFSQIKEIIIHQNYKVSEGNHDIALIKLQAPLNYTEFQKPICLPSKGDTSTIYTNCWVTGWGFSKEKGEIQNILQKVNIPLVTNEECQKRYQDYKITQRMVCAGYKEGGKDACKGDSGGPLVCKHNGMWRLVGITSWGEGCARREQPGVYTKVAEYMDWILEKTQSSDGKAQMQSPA
Method: as §1, §2, §3

Pronase = experiment: Peptide conjugate digestion with Pronase; set-up: key to the marks not given beside the values; settings: 37° C. for 1 hr
Method: as §1, §2, §3

Proteinase K = Proteinase K (Parengyodontium album, UniProt P06873); experiment: Peptide conjugate digestion with Proteinase K; set-up: key to the marks not given beside the values; settings: 37° C. for 1 hr
Chain of Proteinase K (P06873 106-384): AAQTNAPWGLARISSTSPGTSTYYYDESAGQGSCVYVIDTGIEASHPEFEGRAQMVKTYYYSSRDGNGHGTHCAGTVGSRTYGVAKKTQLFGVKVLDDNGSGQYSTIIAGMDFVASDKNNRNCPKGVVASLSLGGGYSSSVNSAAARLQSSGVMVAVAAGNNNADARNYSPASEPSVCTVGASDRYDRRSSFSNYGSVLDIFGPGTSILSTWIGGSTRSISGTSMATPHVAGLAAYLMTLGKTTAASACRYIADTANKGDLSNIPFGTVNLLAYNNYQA
Method: as §1, §2, §3

Subtilisin = experiment: Peptide conjugate digestion with Subtilisin; settings: 37° C. for 1 hr
Method: as §1, §2, §3

Trypsin = experiment: Peptide conjugate digestion with Trypsin; settings: 37° C. for 1 hr
Method: as §1, §2, §3

Resistance to serum = settings: 37° C., human serum in PBS; later times not yet tested
Method: as §2, §3

For CC(C)C[C@@H]1NC(=O)[C@H](C)NC(=O)[C@H](CCC(=O)O)NC(=O)[C@H](CC(=O)O)NC(=O)[C@H](C)NC(=O)[C@@H]2CCCN2C(=O)[C@@H]2CSCc3cc(cc(c3)CSC[C@@H](C(=O)NCC(=O)O)NC1=O)CSC[C@H](NC(=O)[C@H](C)N)C(=O)N[C@@H](CO)C(=O)N[C@@H](CC(=O)O)C(=O)N[C@@H](CCCNC(=N)N)C(=O)N[C@@H](Cc1ccccc1)C(=O)N[C@@H](CCCNC(=N)N)C(=O)N[C@@H](CC(N)=O)C(=O)N2 [PK15L1-PK15L2 bicyclic, reference compound] (HELM PEPTIDE1{A.C.S.D.R.F.R.N.C.P.A.D.E.A.L.C.G}|CHEM1{[c1c(C[*:1])cc(C[*:3])cc1C[*:2]]}$PEPTIDE1,CHEM1,2:R3-1:R1|PEPTIDE1,CHEM1,9:R3-1:R2|PEPTIDE1,CHEM1,16:R3-1:R3$$$V2.0), the “digestion with Cathepsin G” value (Cathepsin G; 0.01 μg enzyme per reaction) was “+++”, the “digestion with Cathepsin G” value (Cathepsin G; 0.1 μg enzyme per reaction) was “+++” and the “digestion with Chymotrypsin” value (Chymotrypsin; 0.01 μg enzyme per reaction) was “+++”. For the same compound, the “digestion with Chymotrypsin” value (Chymotrypsin; 0.1 μg enzyme per reaction) was “+++”, the “digestion with Chymotrypsin” value (Chymotrypsin; 1 μg enzyme per reaction) was “+++” and the “digestion with Kalikrein” value (Kalikrein; 0.01 μg enzyme per reaction) was “+++”. The “digestion with Kalikrein” value (Kalikrein; 0.1 μg enzyme per reaction) was “+++”, the “digestion with Kalikrein” value (Kalikrein; 1 μg enzyme per reaction) was “+++” and the “factor by which the TBMB conjugate is more resistant than the linear peptide to attack by kallikrein” value (Kalikrein; by comparing different concentrations of enzyme) was “about 100 fold”. For the same compound, the “digestion with Pronase” value (Pronase; 0.01 μg enzyme per reaction) was “+++”, the “digestion with Pronase” value (Pronase; 0.1 μg enzyme per reaction) was “+++” and the “digestion with Proteinase K” value (Proteinase K; 0.01 μg enzyme per reaction) was “+++”. The “digestion with Proteinase K” value (Proteinase K; 0.1 μg enzyme per reaction) was “+++”, the “digestion with Proteinase K” value (Proteinase K; 1 μg enzyme per reaction) was “+++” and the “digestion with Subtilisin” value (Subtilisin; 0.009 μg enzyme per reaction) was “+++”. The “digestion with Subtilisin” value (Subtilisin; 9 μg enzyme per reaction) was “−”, the “digestion with Trypsin” value (Trypsin; 0.01 μg enzyme per reaction) was “+++” and the “digestion with Trypsin” value (Trypsin; 10 μg enzyme per reaction) was “−”. For the same compound, the “time for which proteolysis in serum is resisted” value (Resistance to serum) was “at least 48 hours”.
